Source: US20090143279A1 (priority 2007, published 2009)
Like-named read-outs stand apart in the source and are kept apart here.

What was measured:
nuOXPHOS transcripts = assay type: cell-based, mouse; details: for nucOX (composite Z-score): normalized score vs mock-treated (DMSO) wells
[1] = tested on: cellular dehydrogenase activity; details: for MTT (composite Z-score): normalized score vs mock-treated (DMSO) wells
mtOXPHOS transcripts = assay type: cell-based, mouse; details: for mitoOX (composite Z-score): normalized score vs mock-treated (DMSO) wells
[2] = tested on: mitochondrial membrane potential; assay type: cell-based, mouse; details: for ΔΨm (composite Z-score): normalized score vs mock-treated (DMSO) wells
reactive oxygen species = assay type: cell-based, mouse; details: for ROS (composite Z-score): normalized score vs mock-treated (DMSO) wells
OXPHOS gene expression = assay type: cell-based, mouse; details: for GE-HTS (composite Z-score): normalized score vs mock-treated (DMSO) wells
C2C12 myotubes = details: for Viability (composite Z-score): normalized score vs mock-treated (DMSO) wells
cytochrome c = assay type: cell-based, mouse; details: for cyt c (composite Z-score): normalized score vs mock-treated (DMSO) wells
[3] = composite Z-score vs mock-treated (DMSO) wells, Conc 20 μM
[4] = composite Z-score vs DMSO, Conc 20 μM
[5] = normalized composite Z-score vs mock-treated (DMSO) wells, Conc 20 μM

SMILES | nucOX (nuOXPHOS transcripts; [3]) | MTT [1, 3] | mitoOX (mtOXPHOS transcripts; [3]) | ΔΨm [2, 3] | ROS (reactive oxygen species; [3]) | GE-HTS (OXPHOS gene expression; [3]) | Viability (C2C12 myotubes; [3]) | cyt c (cytochrome c; [3]) | further results
COc1c(O)cc(O)cc1O [iretol] | −0.583 | −0.086 | −1.366 | −0.404 | −0.393 | −0.881 | −0.552 | 0.347 | –
COc1cc(-c2coc3cc(O[C@@H]4O[C@H](CO)[C@@H](O)[C@H](O)[C@H]4O)c(OC)c(O)c3c2=O)cc(O)c1OC [iridin] | −0.602 | −1.958 | −0.990 | 0.076 | 0.927 | −0.755 | −0.441 | −0.474 | –
COc1cc(-c2coc3cc(OC)c(OC)c(OC)c3c2=O)cc(OC)c1OC [irigenin trimethyl ether] | −0.790 | −0.808 | −0.699 | −0.174 | −0.074 | −0.792 | −0.060 | 0.129 | –
COc1cc(-c2coc3cc(OCc4ccccc4)c(OC)c(O)c3c2=O)cc(O)c1OC [irigenin, 7-benzyl ether] | −1.386 | −1.179 | −1.100 | 0.948 | 1.548 | −1.362 | −0.334 | −0.617 | –
COc1cc(-c2coc3cc(OCc4ccccc4)c(OC)c(O)c3c2=O)cc(OCc2ccccc2)c1OC [irigenin, dibenzyl ether] | – | – | – | – | – | – | – | – | nucOX (nuOXPHOS transcripts; [4]): −0.163; MTT [1, 4]: −0.793; mitoOX (mtOXPHOS transcripts; [4]): −0.602; ΔΨm [2, 4]: 0.178; ROS (reactive oxygen species; [4]): 0.088; GE-HTS (OXPHOS gene expression; [4]): −0.325; Viability (C2C12 myotubes; [4]): −1.724; cyt c (cytochrome c; [4]): 0.012
O=c1c(-c2cc(O)c(O)c(O)c2)coc2cc(O)c(O)c(O)c12 [irigenol] | – | – | – | – | – | – | – | – | nucOX (nuOXPHOS transcripts; [4]): −0.838; MTT [1, 4]: −0.810; mitoOX (mtOXPHOS transcripts; [4]): −1.938; ΔΨm [2, 4]: −0.374; ROS (reactive oxygen species; [4]): −1.001; GE-HTS (OXPHOS gene expression; [4]): −1.274; Viability (C2C12 myotubes; [4]): 0.249; cyt c (cytochrome c; [4]): 0.410
CC(=O)Oc1cc(-c2coc3cc(OC(C)=O)c(OC(C)=O)c(OC(C)=O)c3c2=O)cc(OC(C)=O)c1OC(C)=O [iriginol hexaaceatate] | 0.859 | −0.565 | 0.938 | −0.204 | 0.815 | 0.928 | −0.291 | −0.315 | –
COc1cc2occc2c2oc(=O)ccc12 [isobergaptene] | 0.338 | −1.025 | 0.715 | −0.112 | 1.329 | 0.514 | 0.375 | 0.486 | –
COc1ccc2c(c1O)-c1c(OC)c(OC)cc3c1[C@H](C2)N(C)CC3 [isocorydine] | – | – | – | – | – | – | – | – | nucOX (composite Z-score) (nuOXPHOS transcripts; Conc 11.72 μM): 0.451; nucOX (composite Z-score) (nuOXPHOS transcripts; Conc 20 μM): −0.463; MTT (composite Z-score) ([1]; Conc 11.72 μM): −1.041; MTT (composite Z-score) ([1]; Conc 20 μM): −1.215; mitoOX (composite Z-score) (mtOXPHOS transcripts; Conc 11.72 μM): −0.664; mitoOX (composite Z-score) (mtOXPHOS transcripts; Conc 20 μM): −0.322; ΔΨm (composite Z-score) ([2]; Conc 11.72 μM): −1.052; ΔΨm (composite Z-score) ([2]; Conc 20 μM): −0.017; ROS (composite Z-score) (reactive oxygen species; Conc 11.72 μM): 1.214; ROS (composite Z-score) (reactive oxygen species; Conc 20 μM): −0.096; GE-HTS (composite Z-score) (OXPHOS gene expression; Conc 11.72 μM): 0.084; GE-HTS (composite Z-score) (OXPHOS gene expression; Conc 20 μM): −0.462; Viability (composite Z-score) (C2C12 myotubes; Conc 11.72 μM): −1.678; Viability (composite Z-score) (C2C12 myotubes; Conc 20 μM): 1.230; cyt c (composite Z-score) (cytochrome c; Conc 11.72 μM): 0.632; cyt c (composite Z-score) (cytochrome c; Conc 20 μM): 0.355
Cc1cc(=O)c2c(O)cc(O)c(C)c2o1 [isoeugenitol] | −0.647 | −0.500 | −0.680 | 0.369 | 1.129 | −0.717 | 0.377 | 0.662 | –
COc1ccc(-c2cc(=O)c3c(O)cc(O)c(-c4cc(-c5cc(=O)c6c(O)cc(O)cc6o5)ccc4OC)c3o2)cc1 [isoginkgetin] | – | – | – | – | – | – | – | – | nucOX (nuOXPHOS transcripts; [5]): −0.318; MTT [1, 5]: −1.024; mitoOX (mtOXPHOS transcripts; [5]): −1.087; ΔΨm [2, 5]: −4.387; ROS (reactive oxygen species; [5]): 1.106; GE-HTS (OXPHOS gene expression; [5]): −0.589; Viability (C2C12 myotubes; [5]): 2.182; cyt c (cytochrome c; [5]): −0.400
C=C1CCC2C(CC2(C)C)C(=O)CCC1O (centres unmarked) [isokobusone] | – | – | – | – | – | – | – | – | nucOX (nuOXPHOS transcripts; [4]): −0.813; MTT [1, 4]: −0.507; mitoOX (mtOXPHOS transcripts; [4]): −0.713; ΔΨm [2, 4]: −0.283; ROS (reactive oxygen species; [4]): −0.201; GE-HTS (OXPHOS gene expression; [4]): −0.848; Viability (C2C12 myotubes; [4]): −0.090; cyt c (cytochrome c; [4]): 0.480
